ChEMBL document CHEMBL1156840, “Design, synthesis and biological evaluation of new 2,3-diarylquinoline derivatives as selective cyclooxygenase-2 inhibitors” (Bioorg Med Chem, 2010)

Molecular target: T1, Prostaglandin G/H synthase 1 (Ovis aries, UniProt P05979)
T1 sequence (P05979 whole entry): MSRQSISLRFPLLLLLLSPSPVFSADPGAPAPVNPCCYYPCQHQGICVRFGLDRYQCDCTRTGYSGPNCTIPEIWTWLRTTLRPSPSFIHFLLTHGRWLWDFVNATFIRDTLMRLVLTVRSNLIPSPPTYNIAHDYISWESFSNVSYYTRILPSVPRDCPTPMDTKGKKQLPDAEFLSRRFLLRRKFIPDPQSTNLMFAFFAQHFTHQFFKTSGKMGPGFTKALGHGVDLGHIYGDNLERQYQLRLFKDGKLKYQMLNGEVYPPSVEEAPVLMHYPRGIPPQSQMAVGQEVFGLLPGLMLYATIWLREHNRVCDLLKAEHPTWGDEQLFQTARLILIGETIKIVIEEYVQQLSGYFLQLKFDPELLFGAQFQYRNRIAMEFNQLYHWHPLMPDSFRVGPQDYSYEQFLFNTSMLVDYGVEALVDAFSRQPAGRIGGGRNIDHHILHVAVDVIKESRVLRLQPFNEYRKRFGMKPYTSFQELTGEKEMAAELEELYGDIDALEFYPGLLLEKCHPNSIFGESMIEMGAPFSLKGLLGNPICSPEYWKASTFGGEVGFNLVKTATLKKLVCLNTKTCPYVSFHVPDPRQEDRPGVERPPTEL
Description: Inhibition of ovine COX1 by enzyme chemiluminescent enzyme assay

Row | Structure (SMILES) | IC50
1 | CS(=O)(=O)c1ccc(-c2nc3ccccc3c(N)c2-c2ccccc2)cc1 | 14.4 µM
2 | CS(=O)(=O)c1ccc(-c2nc3ccccc3c(C(=O)O)c2-c2ccccc2)cc1 | 48.1 µM
3 | CS(=O)(=O)c1ccc(-c2nc3ccccc3c(-c3ccccc3)c2-c2ccccc2)cc1 | 10.2 µM
4 | CS(=O)(=O)c1ccc(-c2nc3ccccc3cc2-c2ccccc2)cc1 | 33.5 µM
5 | Cc1c(-c2ccccc2)c(-c2ccc(S(C)(=O)=O)cc2)nc2ccccc12 | 13.3 µM
